Active and inactive are the calls of the source. No cut-off for these calls is given here. Numbered stars: 1 amine (or outer) side, 2 acyl side, 3 side chain; on linkers, the order of the positions; unused ones are H or OH. Square brackets hold non-standard residues; d marks the D form. Peptide text beside a SMILES is read from it. X4 = O=C([C@@H]1C(CS(=O)(=O)c2ccccc2)CCN1[*:1])[*:2]; X3 = C[S+]([O-])CC1CCN([*:1])[C@@H]1C(=O)[*:2]; X2 = O=C(O)CC1CCN([*:1])[C@@H]1C(=O)[*:2]; X6 = CC(C)C1CCN([*:1])[C@@H]1C(=O)[*:2]; X5 = O=C([C@@H]1C(CO)CCN1[*:1])[*:2]; X1 = CC1CCN([*:1])[C@@H]1C(=O)[*:2]
Each compound was assayed against Growth factor receptor-bound protein 2 (Homo sapiens, UniProt P62993) (assay: Binding affinity to recombinant Grb2-SH3 domain by fluorescence spectroscopy).

| Kd [µM] | Activity | Compound |
| --- | --- | --- |
| < 0.52 | – | CC(=O)N[C@H](C(=O)N1CCC[C@H]1C(=O)N1CCC[C@H]1C(=O)N1CCC[C@H]1C(=O)N1CCC(C)[C@H]1C(=O)N1CCC[C@H]1C(=O)N1CCC[C@H]1C(=O)N[C@@H](CCCNC(=N)N)C(=O)N[C@@H](CCCNC(=N)N)C(=O)N[C@@H](CCCNC(=N)N)C(=O)N[C@H](C(=O)N1CCC[C@H]1C(=O)N1CCC[C@H]1C(=O)N1CCC[C@H]1C(=O)N1CCC(C)[C@H]1C(=O)N1CCC[C@H]1C(=O)N1CCC[C@H]1C(=O)N[C@@H](CCCNC(=N)N)C(=O)N[C@@H](CCCNC(=N)N)C(=O)N[C@@H](CCCNC(=N)N)C(=O)N[C@@H](CCCCN)C(N)=O)C(C)C)C(C)C (stereo partly drawn) (Ac-VPPP[X1]PPRRRVPPP[X1]PPRRRK-NH2) |
| 11.6 | – | CC(C)[C@H](N)C(=O)N1CCC[C@H]1C(=O)N1CCC[C@H]1C(=O)N1CCC[C@H]1C(=O)N1CCC(C)[C@H]1C(=O)N1CCC[C@H]1C(=O)N1CCC[C@H]1C(=O)N[C@@H](CCCN=C(N)N)C(=O)N[C@@H](CCCN=C(N)N)C(=O)N[C@@H](CCCN=C(N)N)C(=O)O (stereo partly drawn) (H-VPPP[X1]PPRRR-OH) |
| – | inactive | CC(C)[C@H](N)C(=O)N1CCC[C@H]1C(=O)N1CCC[C@H]1C(=O)N1CCC[C@H]1C(=O)N1CCC(CC(=O)O)[C@H]1C(=O)N1CCC[C@H]1C(=O)N1CCC[C@H]1C(=O)N[C@@H](CCCNC(=N)N)C(=O)N[C@@H](CCCNC(=N)N)C(=O)N[C@@H](CCCNC(=N)N)C(=O)O (stereo partly drawn) (H-VPPP[X2]PPRRR-OH) |
| – | inactive | CC(C)[C@H](N)C(=O)N1CCC[C@H]1C(=O)N1CCC[C@H]1C(=O)N1CCC[C@H]1C(=O)N1CCC(C[S+](C)[O-])[C@H]1C(=O)N1CCC[C@H]1C(=O)N1CCC[C@H]1C(=O)N[C@@H](CCCNC(=N)N)C(=O)N[C@@H](CCCNC(=N)N)C(=O)N[C@@H](CCCNC(=N)N)C(=O)O (stereo partly drawn) (H-VPPP[X3]PPRRR-OH) |
| – | inactive | CC(C)[C@H](N)C(=O)N1CCC[C@H]1C(=O)N1CCC[C@H]1C(=O)N1CCC[C@H]1C(=O)N1CCC(CS(=O)(=O)c2ccccc2)[C@H]1C(=O)N1CCC[C@H]1C(=O)N1CCC[C@H]1C(=O)N[C@@H](CCCNC(=N)N)C(=O)N[C@@H](CCCNC(=N)N)C(=O)N[C@@H](CCCNC(=N)N)C(=O)O (stereo partly drawn) (H-VPPP[X4]PPRRR-OH) |
| – | inactive | CC(C)[C@H](N)C(=O)N1CCC[C@H]1C(=O)N1CCC[C@H]1C(=O)N1CCC[C@H]1C(=O)N1CCC(CO)[C@H]1C(=O)N1CCC[C@H]1C(=O)N1CCC[C@H]1C(=O)N[C@@H](CCCNC(=N)N)C(=O)N[C@@H](CCCNC(=N)N)C(=O)N[C@@H](CCCNC(=N)N)C(=O)O (stereo partly drawn) (H-VPPP[X5]PPRRR-OH) |
| – | inactive | CC(C)C1CCN(C(=O)[C@@H]2CCCN2C(=O)[C@@H]2CCCN2C(=O)[C@@H]2CCCN2C(=O)[C@@H](N)C(C)C)[C@@H]1C(=O)N1CCC[C@H]1C(=O)N1CCC[C@H]1C(=O)N[C@@H](CCCNC(=N)N)C(=O)N[C@@H](CCCNC(=N)N)C(=O)N[C@@H](CCCNC(=N)N)C(=O)O (stereo partly drawn) (H-VPPP[X6]PPRRR-OH) |
| – | inactive | H-VPPPPPPRRR-OH |
